Reference: US9333152B2, “Peptides which inhibit activated receptors and their use in cosmetic or pharmaceutical compositions” (LIPOTEC, S.A., priority 2011, dated 2016)
“And” between values parts separate entries of the source, which are not always exact repeats. Equal values may be shown once.

Legend:
[1] = tested on: sensitization of TRPV1 mediated by PAR-2 activity; experiment: Inhibition of sensitization of TRPV1 mediated by PAR-2 activity in sensory neurons in culture; CGRP levels (EIA); format: cell-based; conditions: rat DRG neurons, 15 min, PAR-2 agonist I 30 μM then capsaicin 1 μM
Description: Thus, the effectiveness and potential of the peptides in the inhibition of α-CGRP release due to TRPV-1 sensitization mediated by PAR-2 activity in culture of rat DRG neurons was evaluated.
DRG neurons in culture were incubated with the different treatments at the indicated concentrations in buffer medium HBSS (Hank's Balanced salt solution) for 15 min at 37° C., after which the neurons were sensitized by treatment with the PAR-2 agonist I at 30 μM for 15 min at 37° C. Lastly α-CGRP release was induced by treatment with capsaicin 1 μM for 5 min at 37° C. The supernatants were collected and the amount of α-CGRP released was determined by enzyme immunoassay using the Rat CGRP EIA kit (SPI-Bio, Societe de Pharmacologie et d'Immunologie-BIO, France) following the supplier's instructions. The intensity of the color, determined by reading the absorbency at 405 nm, is proportional to the amount of CGRP released. The relative values of CGRP released were determined by double standardization with regard to the basal release of CGRP of the negative control (cells treated with HBSS) and the maximum releases of CGRP induced by the treatment with the cells with the PAR-2 agonist I and capsaicin.

PAR-2 = target: T1, PAR-2 (Homo sapiens, UniProt P55085); experiment: Inhibition of the release of IL-6 induced by PAR-2 activity in human keratinocytes (ELISA); format: cell-based; conditions: 48 h, relative to agonist
T1 construct: endogenous in cells; host or cells: human keratinocytes
T1 sequence (P55085 26-397): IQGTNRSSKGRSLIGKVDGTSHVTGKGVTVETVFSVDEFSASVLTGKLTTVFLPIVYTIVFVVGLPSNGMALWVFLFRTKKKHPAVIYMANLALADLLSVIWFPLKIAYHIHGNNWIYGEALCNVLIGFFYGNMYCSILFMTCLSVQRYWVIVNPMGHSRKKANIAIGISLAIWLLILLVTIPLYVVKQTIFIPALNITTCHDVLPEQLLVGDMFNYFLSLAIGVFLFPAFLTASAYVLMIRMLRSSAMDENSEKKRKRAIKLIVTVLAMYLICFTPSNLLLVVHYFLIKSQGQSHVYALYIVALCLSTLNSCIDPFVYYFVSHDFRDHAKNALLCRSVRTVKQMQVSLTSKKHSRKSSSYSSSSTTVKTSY
Description: Human keratinocytes were cultivated in supplemented Epilife® medium until confluence was achieved. The cells were then separated by treatment with trypsin and seeded at a density of 18,000 cells per well in 96-well plates pre-treated with collagen matrix. After 48 hours of incubation in supplemented Epilife® medium at 37° C. in a humidified atmosphere of 5% CO2 a fresh medium was added with different concentrations of the product of the invention together with PAR2 Agonist I at 50 μM. Cells treated with supplemented Epilife® medium were added as a negative control (Control). The cells were incubated for another 48 hours under the same conditions, after which the supernatants were collected and the amount of IL-6 released was determined using the Human IL-6 ELISA Ready-SET-GOI® commercial kit (eBioscience, Inc.) following the supplier's instructions. The absorbance of each well was determined by reading the spectrophotometer Multiskan Ascent Reader at 450 nm correcting for each determination with its corresponding reading at 570 nm. The relative levels of IL-6 were calculated standardized with regard to the absorbance corresponding to the treatment of the cells with the PAR-2 Agonist I (maximum release of IL-6 in this cell model).

[2] = In vivo study of skin hydration (Corneometer CM 825, legs); set-up: species or system human; conditions: versus placebo composition
Description: A comparative in vivo study of the hydrating capacity of the skin of the cosmetic composition in example 22 and its placebo composition, which contained the same ingredients and in the same percentages as the composition of example 22, except the peptide of the invention, Ac-L-Phe-L-Phe-L-Trp-L-Phe-L-His-L-Val-NH2, which was substituted by water.
The measurements of this study were carried out after the test persons were acclimatized for 45 minutes in a bioclimatic room (22° C.; 60% relative humidity) and with the purpose of maintaining the temperature and humidity constant during the measuring. The measurements of skin hydration were carried out on the legs using a Corneometer® CM 825 (Courage & Khazaka, Germany). […]
All the volunteers applied the placebo composition on their right leg and the cosmetic composition from Example 22 on their left legs twice a day for 4 weeks, always applying the placebo composition to the right leg and the composition from example 22 to the left leg. […] Skin measurement values were measured at three different places within the respective testing areas. The recorded values were averaged. […]

[3] = tested on: human epidermal keratinocytes; experiment: Proliferation of human epidermal keratinocytes in culture (calcein-AM); format: cell-based; conditions: 24 h, (T-C)/C
Description: Cell proliferation was evaluated by a fluorescence-based cell viability method, in which the live cells are distinguished from the dead cells by the enzymatic conversion of calcein-AM to its fluorescent form.
Human keratinocytes were cultivated in DMEM supplemented with fetal bovine serum (FBS) until confluence was achieved. The cells were then separated using trypsin and were seeded at a density of 100,000 cells per well in 96-well plates. After 24 hours of incubation in DMEM at 37° C. in a humidified atmosphere at 5% CO2 a fresh medium was added with different concentrations of the product of the invention. Cells treated with DMEM as a negative control were used. The cells were incubated for another 24 hours under the same conditions and the medium was substituted by 100 μl of calcein-AM (Molecular Probes) at 0.4 μM diluted in phosphate buffered saline (PBS). After 30 minutes of incubation at 37° C. the fluorescence was measured at excitation 485 nm and emission 530 nm in a plate reader (Genios, Tecan). The total growth percentage was calculated as T/C×100 wherein T is the fluorescence of the wells treated with the peptides of the invention and C the fluorescence of the control wells treated with DMEM.

[4] = tested on: Reconstructed human epidermis (RHE); experiment: Anti-sensitizing potential: IL-8 expression in reconstructed human epidermis (RHE), ELISA; format: cell-based; conditions: versus placebo composition; allergens cinnamal and farnesol
Excerpt: Cosmetic creams containing parfums normally show allergic reactions due to some allergenic components like cinnamal or farnesol. The purpose of this experiment was to evaluate the anti-sensitizing potential of a cosmetic cream of Example 23 containing cinnamal, farnesol and the peptide Ac-L-Phe-L-Phe-L-Trp-L-Phe-L-His-L-Val-NH2, compared with a placebo cream (composition of Example 23 without the ingredients of phase C). In order to determine the anti-sensitizing potential the level of interleukin-8, IL-8 was measured for both creams in RHE tissues after 24 h of cream application.
Commercial RHE tissues (SkinEthic, Lyon, RHE/S/17) (0.5 cm^2) were treated in triplicate with 15 μg of the composition of Example 23 and the placebo composition over the surface of the tissue. After 24 hours of incubation in growth medium at 37° C. in a humidified atmosphere at 5% CO2, the IL-8 expression in the treated RHE tissues was determined using the ELISA Interleukin detection kit (Invitrogen) following the supplier's instructions. The absorbance was determined by reading the spectrophotometer Synergy MX, Biotek, at 450 nm.

human dermal fibroblasts = experiment: Photoprotective effectiveness in human dermal fibroblasts (solar simulation lamp, Neutral Red); format: cell-based; conditions: 0.01 μg/mL
Description: The human dermal fibroblasts were maintained in culture for 24 hours in […] or phosphate buffered saline (irradiated control, IC) for 1 hour at 37° C. and humidified air with 5% CO2. The cells were then irradiated with a solar simulation lamp with an energy of 37 J/cm^2 at room temperature for 150 min. A control plate was kept in the dark for the same time at room temperature (non-irradiated control, NIC). After the irradiation period the cell medium was replaced by a fresh one and the cells were incubated for another 24 hours. Cell viability was determined by Neutral Red dye, measuring the optical density at 540 nm in a spectrophotometer, standardizing the values of each simple with regard to the cell viability of the non-irradiated control sample (CVNIC).

[5] = tested on: human epidermal keratinocytes; experiment: Induction of healing in human epidermal keratinocytes in culture (cell-free area closure); format: cell-based; conditions: 48 h, (A0-A48)/A0
Description: Human keratinocytes were cultivated in DMEM supplemented with fetal bovine serum (FBS) until confluence was achieved. The cells were then separated using trypsin and were seeded at a density of 50,000 cells per well in 48-well plates. After 48 hours of incubation in DMEM at 37° C. in a humidified atmosphere at 5% CO2 a cut in the cultivation with a pipette point to create an area without cells simulating an injury and photographs were taken of said area with a Zeiss Axiovert 40 CFL microscope equipped with a AxioCam MRc5 camera, calculating the area of the zone without cells using the (A0) equipment software. A fresh medium was then added with different concentrations of the product of the invention. Cells treated with DMEM as a negative control were used, and cells treated with DMEM and FBS as the positive healing control. The cells were incubated for another 48 hours under the same conditions to enable cell migration in the injury area, after which photographs were taken of the injury area once again and the corresponding areas of the zones without cells were calculated (A48).
The healing percentage was calculated as the ratio of the reduction to the area without cells after 48 hours and the area without cells before incubation with the peptide [(A0-A48)/A0].

[6] = peptide 0.1 mg/mL with PAR2 Agonist I 50 μM
[7] = peptide 0.5 mg/mL with PAR2 Agonist I 50 μM

Row | Substance | % CGRP ([1]; peptide 25 μg/mL) | % CGRP ([1]; peptide 0.5 mg/mL) | % IL-6 (PAR-2; [6]) | % IL-6 (PAR-2; [7]) | skin hydration (in words) [2] | % Stimulation of proliferation ([3]; 10 μg/mL) | % Stimulation of proliferation ([3]; 25 μg/mL) | IL-8 expression / release of cytokines (in words) [4] | % PHOTOPROTECTIVE EFFECTIVENESS (human dermal fibroblasts; (CVi-CVIC)/CVIC versus irradiated control) | CELL VIABILITY (%) (human dermal fibroblasts; irradiated 37 J/cm^2, 150 min, relative to non-irradiated control) | % Healing ([5]; 25 μg/mL) | % Healing ([5]; 0.5 mg/mL)
1 | Ac-FMWFHV-NH2 [Ac-L-Phe-L-Met-L-Trp-L-Phe-L-His-L-Val-NH2] | 70.1% | 20.2% | 84.6% | 42.3% |  |  |  |  |  |  |  | 
2 | Ac-FFWDIV-NH2 [Ac-L-Phe-L-Phe-L-Trp-L-Asp-L-Ile-L-Val-NH2] | 78.7% | 20.3% | 36.2% | 11.5% |  |  |  |  |  |  |  | 
3 | Ac-FFWFHV-NH2 [Ac-L-Phe-L-Phe-L-Trp-L-Phe-L-His-L-Val-NH2] | 58.9% | 17.7% | 61.8% | 30.4% | improves the skin's hydration in vivo | 21.3% | 23% and 23.2% | highly counteract the release of cytokines induced by cosmetic allergens | 105.9% | 37.1% | 40.0% | 45% and 44.8%
